Data: paper PMC8137473, “Preclinical trial of a MAP4K4 inhibitor to reduce infarct size in the pig: does cardioprotection in human stem cell-derived myocytes predict success in large mammals?” (Basic Research in Cardiology, 2021)

Tested on: swine
Experiment: pilot physiological study in healthy, chronically instrumented swine
Type: in vivo
Conditions: for LV dP/dtmin: in mmHg/s (unit assumed)
Protocol: Pilot physiological studies were performed in 2 female swine (45 and 85 kg), to confirm the lack of adverse effects from DMX-10001 in healthy myocardium. Animals were chronically instrumented as detailed below. Following a recovery week, animals received the pro-drug DMX-10001, while hemodynamics were recorded. Based on prior pharmacokinetic studies and modeling (Fig. 1b), two different dosing regimens were investigated, a three-step infusion (41 mg/kg/h, 0.5 h + 15.3 mg/kg/h, 2.5 h + 9.8 mg/kg/h, 5 h) versus a logistically simpler two-step approach (60 mg/kg/h, 0.5 h + 17 mg/kg/h, 23.5 h). During infusion of the pro-drug, blood was sampled to measure production of the active form, DMX-5804, by liquid chromatography–mass spectometry (Pharmidex, London, UK) as described.
A chronically instrumented animal received DMX-10001 for 8 h as shown, with a rapid initial infusion then stepwise decreasing concentrations over time. […] HR, heart rate; MAP, mean arterial pressure; CO, cardiac output; SV, stroke volume; SVR, systemic vascular resistance; dP/dtmax, maximal rate of rise in LV pressure; dP/dtmin, maximal rate of fall in LV pressure.
A chronically instrumented animal received DMX-10001 for 24 h as shown, starting with rapid infusion for half an hour then a lower concentration. […] HR, heart rate; MAP, mean arterial pressure; CO, cardiac output; SV, stroke volume; SVR, systemic vascular resistance; dP/dtmax, maximal rate of rise in LV pressure; dP/dtmin, maximal rate of fall in LV pressure.

[1] = animal 1, three-step infusion, 2 min
[2] = animal 1, three-step infusion, 10 min
[3] = animal 1, three-step infusion, 40 min
[4] = animal 1, three-step infusion, 1h
[5] = animal 1, three-step infusion, 2h
[6] = animal 1, three-step infusion, 3h
[7] = animal 1, three-step infusion, 4h
[8] = animal 1, three-step infusion, 6h
[9] = animal 1, three-step infusion, 8h
[10] = animal 1, three-step infusion, 8h 2 min
[11] = animal 1, three-step infusion, 8h 10 min
[12] = animal 1, three-step infusion, 8h 30 min
[13] = animal 1, three-step infusion, Baseline
[14] = animal 2, two-step infusion, 2 min
[15] = animal 2, two-step infusion, 10min
[16] = animal 2, two-step infusion, 30 min
[17] = animal 2, two-step infusion, 40 min
[18] = animal 2, two-step infusion, 2h
[19] = animal 2, two-step infusion, 24h
[20] = animal 2, two-step infusion, 24h 2 min
[21] = animal 2, two-step infusion, 24h 10 min
[22] = animal 2, two-step infusion, 24h 30 min
[23] = animal 2, two-step infusion, 25h
[24] = animal 2, two-step infusion, Baseline

CO [1]: 11.2 L/min
HR [1]: 116 bpm
LV dP/dtmax [1]: 4070 mmHg/s
MAP [1]: 96 mmHg
SV [1]: 97 mL
SVR [1]: 8.6 mmHg/L/min
LV dP/dtmin [1]: -2280
CO [2]: 11.1 L/min
HR [2]: 112 bpm
LV dP/dtmax [2]: 3290 mmHg/s
MAP [2]: 88 mmHg
SV [2]: 99 mL
SVR [2]: 7.9 mmHg/L/min
LV dP/dtmin [2]: -2280
CO [3]: 10.1 L/min
HR [3]: 105 bpm
LV dP/dtmax [3]: 4060 mmHg/s
MAP [3]: 99 mmHg
SV [3]: 96 mL
SVR [3]: 9.8 mmHg/L/min
LV dP/dtmin [3]: -2530
CO [4]: 10.7 L/min
HR [4]: 115 bpm
LV dP/dtmax [4]: 4040 mmHg/s
MAP [4]: 103 mmHg
SV [4]: 93 mL
SVR [4]: 9.7 mmHg/L/min
LV dP/dtmin [4]: -2690
CO [5]: 11.4 L/min
HR [5]: 106 bpm
LV dP/dtmax [5]: 4840 mmHg/s
MAP [5]: 107 mmHg
SV [5]: 108 mL
SVR [5]: 9.4 mmHg/L/min
LV dP/dtmin [5]: -3270
CO [6]: 13.0 L/min
HR [6]: 120 bpm
LV dP/dtmax [6]: 6030 mmHg/s
MAP [6]: 117 mmHg
SV [6]: 108 mL
SVR [6]: 9.0 mmHg/L/min
LV dP/dtmin [6]: -3330
CO [7]: 12.0 L/min
HR [7]: 113 bpm
LV dP/dtmax [7]: 5260 mmHg/s
MAP [7]: 120 mmHg
SV [7]: 106 mL
SVR [7]: 10 mmHg/L/min
LV dP/dtmin [7]: -3020
CO [8]: 12.9 L/min
HR [8]: 134 bpm
LV dP/dtmax [8]: 5430 mmHg/s
MAP [8]: 105 mmHg
SV [8]: 96 mL
SVR [8]: 8.2 mmHg/L/min
LV dP/dtmin [8]: -2830
CO [9]: 11.8 L/min
HR [9]: 111 bpm
LV dP/dtmax [9]: 5020 mmHg/s
MAP [9]: 95 mmHg
SV [9]: 106 mL
SVR [9]: 8.0 mmHg/L/min
CO [10]: 11.1 L/min
HR [10]: 105 bpm
LV dP/dtmax [10]: 4550 mmHg/s
MAP [10]: 92 mmHg
SV [10]: 106 mL
SVR [10]: 8.3 mmHg/L/min
LV dP/dtmin [10]: -2820
CO [11]: 11.4 L/min
HR [11]: 105 bpm
LV dP/dtmax [11]: 4730 mmHg/s
MAP [11]: 102 mmHg
SV [11]: 109 mL
SVR [11]: 8.9 mmHg/L/min
LV dP/dtmin [11]: -3300
CO [12]: 14.3 L/min
HR [12]: 127 bpm
LV dP/dtmax [12]: 5740 mmHg/s
MAP [12]: 101 mmHg
SV [12]: 113 mL
SVR [12]: 7.1 mmHg/L/min
LV dP/dtmin [12]: -3190
LV dP/dtmin [9]: -2920
CO [13]: 11.1 L/min
HR [13]: 117 bpm
LV dP/dtmax [13]: 3470 mmHg/s
MAP [13]: 94 mmHg
SV [13]: 95 mL
SVR [13]: 8.5 mmHg/L/min
LV dP/dtmin [13]: -2500
CO [14]: 9.7 L/min
HR [14]: 116 bpm
LV dP/dtmax [14]: 5860 mmHg/s
MAP [14]: 80 mmHg
SV [14]: 84 mL
SVR [14]: 8.2 mmHg/L/min
LV dP/dtmin [14]: -4170
CO [15]: 6.9 L/min
HR [15]: 90 bpm
LV dP/dtmax [15]: 3400 mmHg/s
MAP [15]: 83 mmHg
SV [15]: 76 mL
SVR [15]: 12.1 mmHg/L/min
LV dP/dtmin [15]: -3670
CO [16]: 6.7 L/min
HR [16]: 92 bpm
LV dP/dtmax [16]: 3420 mmHg/s
MAP [16]: 84 mmHg
SV [16]: 72 mL
SVR [16]: 12.7 mmHg/L/min
LV dP/dtmin [16]: -3430
CO [17]: 6.1 L/min
HR [17]: 83 bpm
LV dP/dtmax [17]: 3680 mmHg/s
MAP [17]: 90 mmHg
SV [17]: 73 mL
SVR [17]: 14.8 mmHg/L/min
LV dP/dtmin [17]: -3640
CO [18]: 7.2 L/min
HR [18]: 91 bpm
LV dP/dtmax [18]: 4250 mmHg/s
MAP [18]: 94 mmHg
SV [18]: 79 mL
SVR [18]: 13.1 mmHg/L/min
LV dP/dtmin [18]: -4120
CO [19]: 8.7 L/min
HR [19]: 107 bpm
LV dP/dtmax [19]: 4260 mmHg/s
MAP [19]: 89 mmHg
SV [19]: 82 mL
SVR [19]: 10.2 mmHg/L/min
CO [20]: 9.1 L/min
HR [20]: 111 bpm
LV dP/dtmax [20]: 5090 mmHg/s
MAP [20]: 72 mmHg
SV [20]: 82 mL
SVR [20]: 7.9 mmHg/L/min
LV dP/dtmin [20]: -3740
CO [21]: 7.0 L/min
HR [21]: 87 bpm
LV dP/dtmax [21]: 3950 mmHg/s
MAP [21]: 97 mmHg
SV [21]: 80 mL
SVR [21]: 13.9 mmHg/L/min
LV dP/dtmin [21]: -4120
CO [22]: 7.7 L/min
HR [22]: 92 bpm
LV dP/dtmax [22]: 4810 mmHg/s
MAP [22]: 144 mmHg
SV [22]: 83 mL
SVR [22]: 18.9 mmHg/L/min
LV dP/dtmin [22]: -4140
LV dP/dtmin [19]: -3380
CO [23]: 9.1 L/min
HR [23]: 115 bpm
LV dP/dtmax [23]: 5360 mmHg/s
MAP [23]: 153 mmHg
SV [23]: 79 mL
SVR [23]: 16.8 mmHg/L/min
LV dP/dtmin [23]: -4460
CO [24]: 7.8 L/min
HR [24]: 101 bpm
LV dP/dtmax [24]: 3800 mmHg/s
MAP [24]: 77 mmHg
SV [24]: 77 mL
SVR [24]: 10.0 mmHg/L/min
LV dP/dtmin [24]: -3040
Structure (SMILES): COCCOc1ccc(-c2cn(-c3ccccc3)c3ncn(COP(=O)(O)O)c(=O)c23)cc1 [DMX-10001]
adverse effect on hemodynamics or LV function (pilot studies of two healthy animals): No adverse effect
